Assay results published in PMC6797481, “Identification of an allosteric binding site on the human glycine transporter, GlyT2, for bioactive lipid analgesics” (eLife, 2019).
Numbering of substitutions follows the chain as printed.

Experiments:
GlyT2 F428A mutant = target: T1, GlyT2 F428A mutant (Homo sapiens, UniProt Q9Y345, F428A); assay: Glycine transport currents, two electrode voltage clamp, oocytes expressing GlyT2 F428A; assay type: cell-based; conditions: GlyT2 F428A; for % Max. inhibition: mean ± SEM
T1 construct: expressed in transfected cells; host or cells: Xenopus laevis oocytes (cRNA injection)
T1 sequence (Q9Y345 1-797 F428A): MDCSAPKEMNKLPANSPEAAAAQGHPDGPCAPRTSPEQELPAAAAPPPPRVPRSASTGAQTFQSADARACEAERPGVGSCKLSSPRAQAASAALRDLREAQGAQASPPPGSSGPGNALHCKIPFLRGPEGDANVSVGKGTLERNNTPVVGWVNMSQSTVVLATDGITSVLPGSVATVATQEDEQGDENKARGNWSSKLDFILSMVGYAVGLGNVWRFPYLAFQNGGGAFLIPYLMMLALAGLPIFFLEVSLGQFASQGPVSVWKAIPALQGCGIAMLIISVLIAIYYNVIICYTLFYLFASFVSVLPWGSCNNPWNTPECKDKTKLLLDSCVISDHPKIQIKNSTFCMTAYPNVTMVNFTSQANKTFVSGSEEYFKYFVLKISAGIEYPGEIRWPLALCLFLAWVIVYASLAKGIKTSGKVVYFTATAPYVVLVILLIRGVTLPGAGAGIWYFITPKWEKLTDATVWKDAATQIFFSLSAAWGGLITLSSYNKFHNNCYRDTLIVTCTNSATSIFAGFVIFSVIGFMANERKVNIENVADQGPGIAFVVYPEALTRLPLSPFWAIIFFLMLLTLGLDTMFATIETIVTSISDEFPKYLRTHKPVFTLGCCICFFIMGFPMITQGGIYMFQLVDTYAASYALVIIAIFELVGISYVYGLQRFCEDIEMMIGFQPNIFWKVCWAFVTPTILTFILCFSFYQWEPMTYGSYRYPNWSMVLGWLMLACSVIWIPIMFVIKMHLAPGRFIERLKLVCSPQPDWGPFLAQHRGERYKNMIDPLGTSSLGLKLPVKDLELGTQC
Experimental: (§1) Glycine was first applied to establish maximal transport current.
(§2) Compounds were tested for inhibition of glycine transport on Xenopus laevis oocytes expressing mutant GlyT1 and GlyT2 transporters. n values are in brackets, with measurements taken from at least 2 batches of oocytes.

GlyT1 WT = system: GlyT1 WT; design: method as in earlier work; conditions: previously published; cited from earlier work
GlyT2 WT = target: T2, GlyT2 WT (Homo sapiens, UniProt Q9Y345); design: expressed in transfected cells; host or cells: Xenopus laevis oocytes (cRNA injection); conditions: WT GlyT2, previously published, cited from earlier work; for IC50: mean (95% CI); for GlyT2 % max. inhibition: mean ± SEM
T2 sequence (Q9Y345 1-797): T1 sequence (Q9Y345 1-797 F428A) with A428F

GlyT2 Y550L mutant = target: T3, GlyT2 Y550L mutant (Homo sapiens, UniProt Q9Y345, Y550L); assay: Glycine transport currents, two electrode voltage clamp, oocytes expressing GlyT2 Y550L; assay type: cell-based; conditions: GlyT2 Y550L; for % Max. inhibition: mean ± SEM
T3 construct: expressed in transfected cells; host or cells: Xenopus laevis oocytes (cRNA injection)
T3 sequence (Q9Y345 1-797 Y550L): T1 sequence (Q9Y345 1-797 F428A) with A428F, Y550L
Experimental: as §1, §2

Row | Structure (SMILES) | IC50 (GlyT2 F428A mutant) [µM] | % Max. inhibition (% inhibition at the highest concentration of inhibitor used) (GlyT2 F428A mutant; footnote b) | IC50 (GlyT1 WT) [µM] | IC50 (GlyT2 WT) [µM] | GlyT2 % max. inhibition (GlyT2 WT) [%] | % Max. inhibition (GlyT2 F428A mutant) | % Max. inhibition (GlyT2 Y550L mutant) | IC50 (GlyT2 Y550L mutant; greater than maximum concentration applied (footnote a)) [µM] | IC50 (GlyT2 F428A mutant; mean (95% CI)) [µM]
1 | CCCCC=CCCCCCCCC(=O)NCC(=O)O [C14 ω5 Glycine] | > 30 | 33.4 ± 3.0^b (p=0.0007) % | > 10 | 9.2 | 100 ± 7.2 |  |  |  | 
2 | CCCCCCCC=CCCCCCCCCC(=O)NCC(=O)O [C18 ω8 Glycine] | > 10 |  | > 10 | 0.32 | 61.3 ± 1.7 | 13.2 ± 2.7 (p=0.0001) % |  |  | 
3 | CCCCCCCC/C=C\CCCCCCCC(=O)N[C@@H](CC(C)C)C(=O)O [oleoyl l-Leucine] |  |  | > 10 |  | 72.2 ± 3.8 |  | 41.1 ± 6.2 (p=0.0115) % |  | 
4 | CCCCCCCC/C=C\CCCCCCCC(=O)N[C@@H](CCCNC(=N)N)C(=O)O [oleoyl l-Arginine] |  |  | > 3 | 0.0479 | 87.2 ± 3.7 |  | 9.3 ± 1.4 (p=0.0001) % | > 3 | 
5 | CCCCCCCCCCC=CCCCC(=O)NCC(=O)O [C16 ω11 Glycine] |  |  | > 10 | 3.4 | 97.9 ± 2.3 | 103 ± 7.7 (p=0.6075) % |  |  | 4.81
6 | CCCCCCCCCC=CCCCCCCC(=O)NCC(=O)O [C18 ω10 Glycine] |  |  | > 10 | 0.34 | 52.4 ± 2.2 | 25.3 ± 5.3 (p=0.0092) % |  |  | 0.776
